Data from the supplement of paper PMC10307832.

Columns and labels:
Experiment in all cases: relative viability (nuclei count vs DMSO), 5 days (fraction); higher = more cells survive
[1] = compound: NS(=O)(=O)OC[C@@H]1C[C@@H](n2ccc3c(N[C@H]4CCc5ccccc54)ncnc32)C[C@@H]1O [MLN4924] + CC1(C)CCC(c2ccc(Cl)cc2)=C(CN2CCN(c3ccc(C(=O)NS(=O)(=O)c4ccc(N[C@H](CCN5CCOCC5)CSc5ccccc5)c(S(=O)(=O)C(F)(F)F)c4)cc3)CC2)C1 [Navitoclax] (partner 0.5 µM)
In short: (§1)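 Values are medians from duplicate plates. Each reflects relative viability, defined as the nuclei count of treated wells over that of vehicle wells. Lung cancer cell lines in 1536-well plates were pin-tool dosed one day after seeding with one drug alone or with a fixed anchor-drug dose plus five library-drug doses (not always all listed) in √10 steps, then fixed, stained and imaged at 4× after 5 days.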

[2] = compound: CC[C@H](C)N1C=C(C2=C(C=C(C=C21)C3=CN=C(C=C3)N4CCNCC4)C(=O)NCC5=C(C=C(NC5=O)C)C)C [GSK126] + Cc1cc(Nc2cc(N3CCN(C)CC3)nc(Sc3ccc(NC(=O)C4CC4)cc3)n2)n[nH]1 [Tozasertib] (partner 0.1 µM)
In short: as §1

[3] = compound: C1CC(C1)(C(=O)O)C(=O)O.[NH2-].[NH2-].[Pt+2] [Carboplatin] + Cc1nc(NC(=O)N2CCC[C@H]2C(N)=O)sc1-c1ccnc(C(C)(C)C(F)(F)F)c1 [Alpelisib] (partner 2 µM)
In short: as §1

[4] = compound: NS(=O)(=O)OC[C@@H]1C[C@@H](n2ccc3c(N[C@H]4CCc5ccccc54)ncnc32)C[C@@H]1O [MLN4924] + NC(=O)Nc1cc(-c2cccc(F)c2)sc1C(=O)N[C@H]1CCCNC1 [AZD7762] (partner 0.2 µM)
In short: as §1

| Cell Line | relative viability ([1]; first compound 0.04 µM) | relative viability ([1]; first compound 0.1265 µM) | relative viability ([1]; first compound 0.4 µM) | relative viability ([1]; first compound 1.265 µM) | relative viability ([1]; first compound 4 µM) | relative viability ([2]; first compound 0.08 µM) | relative viability ([2]; first compound 0.253 µM) | relative viability ([2]; first compound 0.8 µM) | relative viability ([2]; first compound 2.53 µM) | relative viability ([2]; first compound 8 µM) | relative viability ([3]; first compound 0.08 µM) | relative viability ([3]; first compound 0.253 µM) | relative viability ([3]; first compound 0.8 µM) | relative viability ([3]; first compound 2.53 µM) | relative viability ([3]; first compound 8 µM) | relative viability ([4]; first compound 0.04 µM) | relative viability ([4]; first compound 0.1265 µM) | relative viability ([4]; first compound 0.4 µM) | relative viability ([4]; first compound 1.265 µM) | relative viability ([4]; first compound 4 µM) |
| --- | --- | --- | --- | --- | --- | --- | --- | --- | --- | --- | --- | --- | --- | --- | --- | --- | --- | --- | --- | --- |
| PC-14 | 0.997 | 0.788 | 0.593 | 0.13 | 0.0891 | 0.614 | 0.674 | 0.639 | 0.535 | 0.403 | 0.992 | 0.838 | 0.875 | 0.883 | 0.711 | 0.335 | 0.405 | 0.347 | 0.166 | 0.127 |
| HCC-15 | 0.526 | 0.3 | 0.185 | 0.0995 | 0.114 | 0.374 | 0.329 | 0.43 | 0.204 | 0.158 | 0.93 | 0.93 | 0.84 | 0.761 | 0.707 | 1.13 | 0.971 | 0.645 | 0.0981 | 0.125 |
| NCI-H2347 | 0.676 | 0.677 | 0.44 | 0.305 | 0.369 | 0.664 | 0.603 | 0.635 | 0.597 | 0.444 | 1.02 | 1.12 | 1 | 0.97 | 0.838 | 0.904 | 0.834 | 0.536 | 0.252 | 0.242 |
| LOU-NH91 | 0.649 | 0.761 | 0.556 | 0.41 | 0.314 | 0.741 | 0.66 | 0.661 | 0.685 | 0.631 | 0.797 | 0.731 | 0.7 | 0.688 | 0.688 | 0.785 | 0.95 | 0.823 | 0.645 | 0.459 |
| LCLC-103H |  |  |  |  |  | 0.699 | 0.473 | 0.435 | 0.512 | 0.446 | 1.1 | 0.975 | 1.09 | 1 | 0.934 | 0.831 | 0.833 | 0.7 | 0.239 | 0.247 |
| EMC-BAC-2 | 1.02 | 0.486 | 0.271 | 0.16 | 0.159 | 0.306 | 0.266 | 0.154 | 0.238 | 0.249 | 0.816 | 0.719 | 0.762 | 0.734 | 0.714 | 1.06 | 0.869 | 0.377 | 0.224 | 0.288 |
| NCI-H2228 |  | 1.03 | 0.221 | 0.135 | 0.155 | 0.254 | 0.225 | 0.273 | 0.172 | 0.15 | 0.813 | 0.687 | 0.561 | 0.593 | 0.566 |  |  |  |  |  |
| HOP-62 | 0.553 | 0.238 | 0.171 | 0.111 | 0.0613 | 0.314 | 0.397 | 0.427 | 0.261 | 0.308 | 0.746 | 0.991 | 1.09 | 0.922 | 0.77 | 0.438 | 0.263 | 0.111 | 0.051 | 0.0648 |
| NCI-H727 | 0.303 | 0.255 | 0.269 | 0.231 | 0.19 | 0.633 | 0.648 | 0.586 | 0.676 | 0.438 | 0.76 | 0.483 | 0.509 | 0.514 | 0.363 | 0.574 | 0.432 | 0.402 | 0.372 | 0.242 |
| COR-L 105 | 0.725 | 0.511 | 0.326 | 0.231 | 0.281 | 0.355 | 0.31 | 0.402 | 0.312 | 0.264 | 1.01 | 1.07 | 0.893 | 0.959 | 0.566 |  |  |  |  |  |
| NCI-H358 |  |  |  |  |  | 0.105 | 0.116 | 0.133 | 0.12 | 0.122 | 1.14 | 0.881 | 0.845 | 0.824 | 0.671 | 0.518 | 0.472 | 0.369 | 0.144 | 0.215 |
| SK-MES-1 | 1.04 | 1.04 | 0.62 | 0.199 | 0.166 | 0.852 | 0.988 | 0.937 | 0.813 | 0.81 | 1.06 | 0.906 | 0.922 | 0.873 | 0.917 |  |  |  |  |  |
| LC-2-ad | 0.382 | 0.276 | 0.184 | 0.13 | 0.105 | 0.43 | 0.472 | 0.428 | 0.458 | 0.419 | 0.876 | 0.906 | 0.88 | 0.882 | 0.786 | 0.376 | 0.9 | 0.837 | 0.376 | 0.236 |
| NCI-H661 |  |  |  |  |  | 0.355 | 0.336 | 0.344 | 0.343 | 0.332 | 0.567 | 0.66 | 0.703 | 0.595 | 0.648 |  |  |  |  |  |
| SK-LU-1 | 0.737 | 0.618 | 0.175 | 0.127 | 0.167 | 0.293 | 0.357 | 0.366 | 0.321 | 0.331 | 0.903 | 1.07 | 0.933 | 0.792 | 0.392 |  |  |  |  |  |
